Experimental data taken from patent US20140221340A1 (KYOWA HAKKO KIRIN CO., LTD., priority 2011, published 2014).

The molecules below were run against T1, human CCR10 (Homo sapiens, UniProt P46092) (assay: Calcium assay of human CCR10 (inhibition of CTACK-induced increase in intracellular calcium ion concentration in hCCR10G16 cells)). Conditions: test compound 100 nmol/L; human recombinant CTACK; hCCR10G16 cells (KJMGER8/Namalwa-derived, Gα16 co-expressed); FLIPR or FDSS; read-out: Inhibitory rate (%) for an increase in calcium ion concentration.
T1 construct: expressed in transfected cells; host or cells: KJMGER8 cell (cell line derived from Namalwa cell); expression induced with 10 nmol/L β-estradiol
T1 sequence (P46092 1-362): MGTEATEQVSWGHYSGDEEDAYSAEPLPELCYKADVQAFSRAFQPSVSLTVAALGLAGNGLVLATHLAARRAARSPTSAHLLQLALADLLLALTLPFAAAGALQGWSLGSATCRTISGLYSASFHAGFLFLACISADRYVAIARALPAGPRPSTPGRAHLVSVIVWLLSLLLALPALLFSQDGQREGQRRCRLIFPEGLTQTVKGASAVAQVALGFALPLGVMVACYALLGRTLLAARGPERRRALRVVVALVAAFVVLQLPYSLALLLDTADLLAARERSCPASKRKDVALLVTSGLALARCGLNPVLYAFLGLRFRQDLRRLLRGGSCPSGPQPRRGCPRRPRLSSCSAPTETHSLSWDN
Format: cell-based
Method: A CCR10-inducible expression plasmid was produced according to a known method (“Analytical Biochemistry”, 2006, vol. 400, page 163). A DNA encoding human CCR10 was obtained by PCR. Using human chromosomal DNA (100 ng; manufactured by Clontech Laboratories, Inc.) as a template, a synthetic DNA having the sequences shown by SEQ ID NOs: 1 and 2 as a human CCR10 cDNA specific primer, and Pyrobest DNA Polymerase (manufactured by TAKARA SHUZO CO. LTD.) as an enzyme, a DNA encoding human CCR10 was obtained by PCR. As a buffer solution for PCR, the buffer solution attached to the enzyme was diluted 10-fold with deionized water and used. Using Thermal Cycler DNA Engine (manufactured by MJ Research), PCR was performed by 35 cycles of reactions composed of an incubation at 90° C. for 2 min, at 94° C. for 30 seconds, at an anneal temperature of 58° C. for 30 seconds, and at 72° C. for 1 min.
The amplified PCR fragment was cleaved with HindIII and NotI, then a human CCR10 DNA fragment was recovered by an agarose gel electrophoresis method. The fragment was incorporated in between the corresponding restriction enzyme sites (HindIII-NotI) of an inducible expression vector, whereby a human CCR10-inducible expression plasmid were prepared.
Using a primer specific to the sequence of the plasmid (synthetic DNA having the sequences shown by SEQ ID NOs: 3 and 4), the sequence of human CCR10 DNA region was determined. For the determination of the base sequence, DNA sequencer 377 (manufactured by PerkinElmer) and a reaction kit (ABI Prism (registered trade mark) BigDye (registered trade mark) Terminator Cycle Sequencing Ready Reaction kit: manufactured by Applied Biosystems) were used. The sequence of human CCR10 DNA matched with the sequence (NM_016602) registered in GenBank.
Cells for the detection of the signal from human CCR10 by a calcium assay were prepared. Human CCR10-inducible expressing cells whose host cell is KJMGER8 cell (cell line derived from Namalwa cell) were prepared according to a known method (“Analy Biochem”, 2006, vol. 400, page 163). Human CCR10-inducible expression plasmid produced above and Gα16 expression plasmid were co-transfected into KJMGER8 cell by an electroporation method (“Cytotechnology”, 1990, vol. 3, page 133), whereby a signal from human CCR10 could be detected by a calcium assay (hereinafter to be referred to as hCCR10G16 cell). Gα16 expression plasmid was produced by incorporating human Gα16 DNA into expression vector pAMoh (WO03/087366). Induced expression of human CCR10 was performed by cultivating hCCR10G16 cells in the presence of 10 nmol/L β-estradiol (manufactured by Sigma Ltd.) for 24 hr.
Cells expressing human CCR10 induced by the above-mentioned method were suspended in RPMI1640 medium and adjusted to cell density of 1.25×10^6 cells/mL. This mixture was dispensed to a 384 well clear bottom plate (manufactured by Corning Incorporated) at 20 μL/well, and these were incubated at 37° C. for several dozen minutes. A loading buffer prepared according to the protocol attached to FLIPR Calcium 3 assay kit (manufactured by Molecular Device) was dispensed to this plate at 20 μL/well, and the plate was incubated at 37° C. for 60 min. A 33 μmol/L DMSO solution of the test compound was diluted 37-fold with RPMI1640 medium and the resulting solution was added at 5 μL/well, and the mixture was incubated at 37° C. for 30 min. 300 nmol/L human recombinant CTACK (manufactured by R and D Systems) diluted with RPMI1640 medium containing 1 w/v % bovine serum albumin was added at 5 μL/well. Change of the intracellular calcium ion concentration for about 5 min after the addition was measured by FLIPR (manufactured by Molecular Device) or FDSS (manufactured by Hamamatsu Photonics K.K.). The difference between the maximum fluorescence intensity and the minimum fluorescence intensity for 5 min was calculated, and taken as the measurement value (maximum fluorescence intensity−minimum fluorescence intensity). […]
For `O=C(NS(=O)(=O)c1cnn2c(NCc3ccccc3)c(C(=O)N3CCC(c4ccccc4)CC3)cnc12)C1CC1` [a-75, N-[7-Benzylamino-6-(4-phenylpiperidine-1-carbonyl)pyrazolo[1,5-a]pyrimidin-3-ylsulfonyl]cyclopropanecarboxamide], the inhibition at 0.1 µM was 89.4%.
Molecule `COCC(=O)NS(=O)(=O)c1cnn2c(Nc3ccc(F)cc3C)c(C(=O)N3CCC(c4ccccc4)CC3)cnc12` [a-64, N-[7-(4-Fluoro-2-methylphenylamino)-6-(4-phenylpiperidine-1-carbonyl)pyrazolo[1,5-a]pyrimidin-3-ylsulfonyl]-2-methoxyacetamide] has an inhibition at 0.1 µM of 94.2%.
With `COC(=O)NS(=O)(=O)c1cnn2c(Nc3ccccc3Cl)c(C(=O)N3CCC(c4ccccc4)CC3)cnc12` [a-8, Methyl 7-(2-chlorophenylamino)-6-(4-phenylpiperidine-1-carbonyl)pyrazolo[1,5-a]pyrimidin-3-ylsulfonylcarbamate] the inhibition at 0.1 µM was 99.6%.
For `Cc1ccc(F)c(Nc2c(C(=O)N3CCC(c4ccc(F)cc4)CC3)cnc3c(S(=O)(=O)NC(=O)NC4CC4)cnn23)c1` [a-32, 7-(2-Fluoro-5-methylphenylamino)-N-(cyclopropylcarbamoyl)-6-[4-(4-fluorophenyl)piperidine-1-carbonyl]pyrazolo[1,5-a]pyrimidine-3-sulfonamide], the inhibition at 0.1 µM was > 100%.
For `CCC(=O)NS(=O)(=O)c1cnn2c(Nc3cc(C)ccc3F)c(C(=O)N3CCC(c4ccc(F)cc4)CC3)cnc12` [a-31, N-{7-(2-Fluoro-5-methylphenylamino)-6-[4-(4-fluorophenyl)piperidine-1-carbonyl]pyrazolo[1,5-a]pyrimidin-3-ylsulfonyl}propionamide], the inhibition at 0.1 µM was > 100%.
`CCNC(=O)NS(=O)(=O)c1cnn2c(Nc3cc(C)ccc3Cl)c(C(=O)N3CCC(c4ccc(F)cc4)CC3)cnc12` [a-14, 7-(2-Chloro-5-methylphenylamino)-N-(ethylcarbamoyl)-6-[4-(4-fluorophenyl)piperidine-1-carbonyl]pyrazolo[1,5-a]pyrimidine-3-sulfonamide] was tested, and the inhibition at 0.1 µM was > 100%.
`CCN(CC)S(=O)(=O)c1cnn2c(Nc3ccc(F)cc3C)c(C(=O)N3CCC(c4ccccc4)CC3)cnc12` [a-62, N,N-Diethyl-7-(4-fluoro-2-methylphenylamino)-6-(4-phenylpiperidine-1-carbonyl)pyrazolo[1,5-a]pyrimidine-3-sulfonamide] was tested, and the inhibition at 0.1 µM was > 100%.
`CCNC(=O)NS(=O)(=O)c1cnn2c(Nc3cc(F)ccc3Cl)c(C(=O)N3CCC(c4ccc(F)cc4)CC3)cnc12` [a-30, 7-(2-Chloro-5-fluorophenylamino)-N-(ethylcarbamoyl)-6-[4-(4-fluorophenyl)piperidine-1-carbonyl]pyrazolo[1,5-a]pyrimidine-3-sulfonamide] was tested, and the inhibition at 0.1 µM was > 100%.
Work on `CCNC(=O)NS(=O)(=O)c1cnn2c(Nc3cc(C)ccc3Cl)c(C(=O)N3CC4(C3)CN(c3ccc(F)cc3)C4)cnc12` [a-61, 7-(2-Chloro-5-methylphenylamino)-N-(ethylcarbamoyl)-6-[6-(4-fluorophenyl)-2,6-diazaspiro[3,3]heptane-2-carbonyl]pyrazolo[1,5-a]pyrimidine-3-sulfonamide] yielded an inhibition at 0.1 µM of 24.3%.
`CCC(=O)NS(=O)(=O)c1cnn2c(Nc3ccc(Cl)cc3Cl)c(C(=O)N3CCC(c4ccc(F)cc4)CC3)cnc12` [a-19, N-{7-(2,4-Dichlorophenylamino)-6-[4-(4-fluorophenyl)piperidine-1-carbonyl]pyrazolo[1,5-a]pyrimidin-3-ylsulfonyl}propionamide] gave an inhibition at 0.1 µM of 97%.
In the case of `O=C(c1cnc2c(S(=O)(=O)Nc3ncccn3)cnn2c1Nc1cc(Cl)ccc1Cl)N1CCC(c2ccc(F)cc2)CC1` [a-80, 7-(2,5-Dichlorophenylamino)-6-[4-(4-fluorophenyl)piperidine-1-carbonyl]-N-(pyrimidin-2-yl)pyrazolo[1,5-a]pyrimidine-3-sulfonamide], the inhibition at 0.1 µM is reported as > 100%.
In the case of `CCNC(=O)NS(=O)(=O)c1cnn2c(Nc3ccccc3Cl)c(C(=O)N3CCC(c4ccc(F)cc4)CC3)cnc12` [a-10, 7-(2-Chlorophenylamino)-N-(ethylcarbamoyl)-6-[4-(4-fluorophenyl)piperidine-1-carbonyl]pyrazolo[1,5-a]pyrimidine-3-sulfonamide], the inhibition at 0.1 µM is reported as > 100%.
For `Cc1cc(F)ccc1Nc1c(C(=O)N2CCC(c3ccccc3)CC2)cnc2c(S(=O)(=O)NC(=O)CO)cnn12` [a-65, N-[7-(4-Fluoro-2-methylphenylamino)-6-(4-phenylpiperidine-1-carbonyl)pyrazolo[1,5-a]pyrimidin-3-ylsulfonyl]-2-hydroxyacetamide], the inhibition at 0.1 µM was > 100%.
With `CCNC(=O)NS(=O)(=O)c1cnn2c(Nc3cc(C)c(F)cc3Cl)c(C(=O)N3CCC(c4ccc(F)cc4)CC3)cnc12` [a-42, 7-(2-Chloro-4-fluoro-5-methylphenylamino)-N-(ethylcarbamoyl)-6-[4-(4-fluorophenyl)piperidine-1-carbonyl]pyrazolo[1,5-a]pyrimidine-3-sulfonamide] the inhibition at 0.1 µM was > 100%.
For `CONS(=O)(=O)c1cnn2c(Nc3cc(Cl)ccc3Cl)c(C(=O)N3CCC(c4ccc(F)cc4)CC3)cnc12` [a-27, 7-(2,5-Dichlorophenylamino)-6-[4-(4-fluorophenyl)piperidine-1-carbonyl]-N-methoxypyrazolo[1,5-a]pyrimidine-3-sulfonamide], the inhibition at 0.1 µM was > 100%.
Work on `O=C(NS(=O)(=O)c1cnn2c(Nc3ccccc3Cl)c(C(=O)N3CCC(c4ccccc4)CC3)cnc12)C1CC1` [a-6, N-[7-(2-Chlorophenylamino)-6-(4-phenylpiperidine-1-carbonyl)pyrazolo[1,5-a]pyrimidin-3-ylsulfonyl]cyclopropanecarboxamide] yielded an inhibition at 0.1 µM of 98.9%.
Work on `Cc1ccc(Cl)c(Nc2c(C(=O)N3CCC4(CC3)OCc3ccccc34)cnc3c(S(=O)(=O)NC(=O)NC4CCOCC4)cnn23)c1` [a-81, 7-(2-Chloro-5-methylphenylamino)-6-[3H-spiro(isobenzofuran-1,4′-piperidine)-1′-carbonyl]-N-(tetrahydro-2H-pyran-4-ylcarbamoyl)pyrazolo[1,5-a]pyrimidine-3-sulfonamide] yielded an inhibition at 0.1 µM of 62.3%.
`CCNS(=O)(=O)c1cnn2c(Nc3cc(C)ccc3Cl)c(C(=O)N3CCC4(CC3)OCc3ccccc34)cnc12` [a-45, N-Ethyl-7-(2-chloro-5-methylphenylamino)-6-[3H-spiro(isobenzofuran-1,4′-piperidine)-1′-carbonyl]pyrazolo[1,5-a]pyrimidine-3-sulfonamide] gave an inhibition at 0.1 µM of 80.3%.
For `CC(=O)NS(=O)(=O)c1cnn2c(Nc3ccc(F)cc3C)c(C(=O)N3CCC(c4ccccc4)CC3)cnc12` [a-17, N-[7-(4-Fluoro-2-methylphenylamino)-6-(4-phenylpiperidine-1-carbonyl)pyrazolo[1,5-a]pyrimidin-3-ylsulfonyl]acetamide], the inhibition at 0.1 µM was > 100%.
